Assay results reported in article PMC4549746, “Zearalenone in the Intestinal Tissues of Immature Gilts Exposed per os to Mycotoxins” (Toxins, 2015).
Entries after “also recorded” stand apart in the source; their conditions may differ.

Key:
[1] = ZEN concentrations and carryover factor in intestinal tissues and liver of pre-pubertal gilts exposed per os (HPLC); assay type: in vivo; details: gilts given ZEN 40 μg/kg BW daily per os, 42 days; detection limits 0.003 µg·g^−1 α-ZEL, 0.002 µg·g^−1 β-ZEL
Procedure: The animals were divided into an experimental group (E, n = 18) and a control group (C, n = 21). Group E animals were orally administered ZEN at 40 μg/kg BW. Group C pigs were fed a placebo. The animals were fed complete diets in a restricted feeding regimen (Table 1). The daily dose of ZEN (40 µg/kg BW) was administered to each animal individually, which corresponds to exposure to 957–1014 µg ZEN/kg of a complete diet, depending on daily feed intake. Zearalenone was biosynthesized, purified and standardized by the Department of Chemistry of the Poznań University of Life Sciences. The experiment covered a period of 42 days. The mycotoxin was administered per os daily, in gelatine capsules before the morning feeding. The ZEN dose was adjusted to the body weight of the experimental animals. The mycotoxin was administered in capsules to prevent problems associated with uneven feed intake. Mycotoxin samples were diluted in 300 μL of 96% ethyl alcohol (96% ethyl alcohol, SWW 2442-90, Polskie Odczynniki Chemiczne SA, Gliwice, Poland) to the required dose level (based on body weight). Final solutions were stored at room temperature for 12 h to evaporate the solvent. The animals were weighed every 7 days to update mycotoxin doses for each gilt. Three animals from the experimental group and the control group each were sacrificed on Days 1, 7, 14, 21, 28, 35 and 42 (a total of 6 gilts in each week of exposure), excluding day 1, when only 3 control group animals were scarified. Every week, tissue samples were collected from the porcine gastrointestinal tract (duodenum, first and middle sections, jejunum, ileum, cecum, ascending colon, transverse colon, descending colon, middle section, and the liver, left lobe). Tissue samples were collected from the whole intestinal cross-sections.
Post-mortem tissue samples were collected from the duodenum, jejunum, ileum, cecum, ascending colon, transverse colon, descending colon and the liver after rinsing with phosphate buffer. Pure tissues were stored at −80 °C until shredding and extraction.
Tissue samples (2 g) were homogenized with 9 cm^3 of methanol for 4 min; they were transferred to centrifuge tubes with a minimal amount of the sediment, and the remainder was combined with 5 cm^3 of methanol and repeatedly homogenized. The extracts were combined and centrifuged for 10 min. The supernatant was transferred to a graduated test tube; its volume was read from the scale, and it was evaporated under a stream of nitrogen at a temperature of 60 °C to 0.1–0.2 cm^3 of water. The evaporated product was combined with 2 cm^3 of deionized water, 2 cm^3 of 0.2 M sodium acetate and 500 µL of […] solution. After 16 h of incubation at 37 °C, the reaction was stopped by adding 0.5 cm^3 of acetonitrile. The mixture was quantitatively transferred to a centrifuge tube; it was combined with 10 cm^3 of deionized water and centrifuged for 10 min at 3500 rpm. The supernatant was applied to the Zearala-Test™ column at the rate of 1–2 drops per second. Mycotoxins were eluted from the column with 1.5 mL of methanol; the solvent was evaporated, and the residue was reconstituted with 1 mL of methanol for HPLC analysis.
The concentrations of ZEN and its derivatives were determined by HPLC with the use of the Waters 2695 Separations Module, Waters 2475 Multi λ Fluorescence Detector and Waters 2996 Array Detector. Excitation and emission wavelengths were 274 and 440 nm, respectively. The reverse-phase column was C-18 Nova Pak (3.9 × 150 mm), and the mobile phase was acetonitrile-water-methanol (46:46:8, v/v/v) at a flow rate of 0.5 mL·min^−1. The mycotoxins were quantified by measuring the […] of the peaks based on the relevant calibration curves (correlation coefficient of 0.9996 for ZEN, 0.9989 for α-ZEL and 0.9976 for β-ZEL). Detection limits were determined at 0.001 µg·g^−1 for ZEN, 0.003 µg·g^−1 for α-ZEL and 0.002 µg·g^−1 for β-ZEL. […]

[2] = relative to parent compound ZEN; cited from earlier work
[3] = parameters: method as in PMID 15972077; details: animal feed naturally contaminated with ZEN and α-ZEL; cited from earlier work

Compound | concentrations of ZEN metabolites in the digestive tract and the liver [1] | estrogenic activity in comparison to ZEN [2] | absorbed from the duodenum [3] [%]
C[C@H]1CCC[C@@H](O)CCC/C=C/c2cc(O)cc(O)c2C(=O)O1 [β-ZEL, β-zearalenol] | below the sensitivity of the method |  | 
C[C@H]1CCC[C@H](O)CCC/C=C/c2cc(O)cc(O)c2C(=O)O1 [α-ZEL, α-zearalenol] | below the sensitivity of the method | three-fold or even four-fold higher; also recorded: three- to four-fold higher | 65
